In article PMC4542539, “The Multiple DSF-family QS Signals are Synthesized from Carbohydrate and Branched-chain Amino Acids via the FAS Elongation Cycle” (Scientific Reports, 2015):

Molecular target: RpfF (Xanthomonas campestris, UniProt Q7CLS3)
Assay: HPLC and LC-MS of product formed by purified His-tagged RpfF
Format: biochemical
Conditions: formed from 3-hydroxydodecanoyl-ACP (dehydratase and thioesterase); Tris-HCl pH 7.5, ATP, Mg2+, Vibrio harveyi AasS; 37 °C, 30 min

Sequence of RpfF (Q7CLS3 entry or part of it): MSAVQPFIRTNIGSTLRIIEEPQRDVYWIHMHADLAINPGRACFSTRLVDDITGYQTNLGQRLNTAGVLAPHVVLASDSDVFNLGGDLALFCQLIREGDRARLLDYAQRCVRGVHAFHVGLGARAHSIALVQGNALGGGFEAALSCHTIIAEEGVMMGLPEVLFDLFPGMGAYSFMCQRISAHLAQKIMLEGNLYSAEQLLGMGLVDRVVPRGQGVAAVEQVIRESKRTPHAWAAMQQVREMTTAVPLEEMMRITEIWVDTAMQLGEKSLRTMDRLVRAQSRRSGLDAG

CCCCCCCCC/C=C\C(=O)O [BDSF, cis-2-dodecenoic acid]
HPLC and LC-MS of product formed by purified His-tagged RpfF: detected in the reaction mixture containing RpfF and 3-OH-C12:0-ACP
